Reference: patent US20100004234A1, “SPECIFIC KINASE INHIBITORS” (Kosan Biosciences Incorporated, priority 2004, published 2010)

Legend:
[1] = system: A375 xenograft; test: B-Raf mutant melanoma (A375) xenograft model; format: in vivo
Description: The sensitivity of B-Raf mutated cancer cell lines to RALs was confirmed in a B-Raf mutant melanoma (A375) xenograft model.

[2] = target: PAK2(h) (Homo sapiens, UniProt Q13177); test: Kinase panel, residual activity; format: biochemical; details: read-out: Percent residual activity
Protocol: (§1) In this panel of 124 kinases, 18 of the 19 kinases identified as having an active site cysteine were inhibited to some extent by hypothemycin at a concentration of 0.2 μM and/or 2 μM.

[3] = target: IR(h) (Homo sapiens, UniProt P06213); test: Kinase panel, residual activity; format: biochemical; details: read-out: Percent residual activity
Protocol: as §1

[4] = target: Ret(h) (Homo sapiens, UniProt P07949); test: Kinase panel, residual activity; format: biochemical; details: read-out: Percent residual activity
Protocol: as §1

[5] = target: Flt1(h) (Homo sapiens, UniProt P17948); test: Kinase panel, residual activity; format: biochemical; details: read-out: Percent residual activity
Protocol: as §1

[6] = target: NEK7(h) (Homo sapiens, UniProt Q8TDX7); test: Kinase panel, residual activity; format: biochemical; details: read-out: Percent residual activity
Protocol: as §1

[7] = target: FGFR3(h) (Homo sapiens, UniProt P22607); test: Kinase panel, residual activity; format: biochemical; details: read-out: Percent residual activity
Protocol: as §1

[8] = target: SGK(h) (Homo sapiens, UniProt O00141); test: Kinase panel, residual activity; format: biochemical; details: read-out: Percent residual activity
Protocol: as §1

[9] = target: Flt3(D835Y)(h) (Homo sapiens, UniProt P36888, D835Y); test: Kinase panel, residual activity; format: biochemical; details: read-out: Percent residual activity
Protocol: as §1

[10] = target: cSRC(h) (Homo sapiens, UniProt P12931); test: Kinase panel, residual activity; format: biochemical; details: read-out: Percent residual activity
Protocol: as §1

Chain of Flt1(h) (P17948 27-1338): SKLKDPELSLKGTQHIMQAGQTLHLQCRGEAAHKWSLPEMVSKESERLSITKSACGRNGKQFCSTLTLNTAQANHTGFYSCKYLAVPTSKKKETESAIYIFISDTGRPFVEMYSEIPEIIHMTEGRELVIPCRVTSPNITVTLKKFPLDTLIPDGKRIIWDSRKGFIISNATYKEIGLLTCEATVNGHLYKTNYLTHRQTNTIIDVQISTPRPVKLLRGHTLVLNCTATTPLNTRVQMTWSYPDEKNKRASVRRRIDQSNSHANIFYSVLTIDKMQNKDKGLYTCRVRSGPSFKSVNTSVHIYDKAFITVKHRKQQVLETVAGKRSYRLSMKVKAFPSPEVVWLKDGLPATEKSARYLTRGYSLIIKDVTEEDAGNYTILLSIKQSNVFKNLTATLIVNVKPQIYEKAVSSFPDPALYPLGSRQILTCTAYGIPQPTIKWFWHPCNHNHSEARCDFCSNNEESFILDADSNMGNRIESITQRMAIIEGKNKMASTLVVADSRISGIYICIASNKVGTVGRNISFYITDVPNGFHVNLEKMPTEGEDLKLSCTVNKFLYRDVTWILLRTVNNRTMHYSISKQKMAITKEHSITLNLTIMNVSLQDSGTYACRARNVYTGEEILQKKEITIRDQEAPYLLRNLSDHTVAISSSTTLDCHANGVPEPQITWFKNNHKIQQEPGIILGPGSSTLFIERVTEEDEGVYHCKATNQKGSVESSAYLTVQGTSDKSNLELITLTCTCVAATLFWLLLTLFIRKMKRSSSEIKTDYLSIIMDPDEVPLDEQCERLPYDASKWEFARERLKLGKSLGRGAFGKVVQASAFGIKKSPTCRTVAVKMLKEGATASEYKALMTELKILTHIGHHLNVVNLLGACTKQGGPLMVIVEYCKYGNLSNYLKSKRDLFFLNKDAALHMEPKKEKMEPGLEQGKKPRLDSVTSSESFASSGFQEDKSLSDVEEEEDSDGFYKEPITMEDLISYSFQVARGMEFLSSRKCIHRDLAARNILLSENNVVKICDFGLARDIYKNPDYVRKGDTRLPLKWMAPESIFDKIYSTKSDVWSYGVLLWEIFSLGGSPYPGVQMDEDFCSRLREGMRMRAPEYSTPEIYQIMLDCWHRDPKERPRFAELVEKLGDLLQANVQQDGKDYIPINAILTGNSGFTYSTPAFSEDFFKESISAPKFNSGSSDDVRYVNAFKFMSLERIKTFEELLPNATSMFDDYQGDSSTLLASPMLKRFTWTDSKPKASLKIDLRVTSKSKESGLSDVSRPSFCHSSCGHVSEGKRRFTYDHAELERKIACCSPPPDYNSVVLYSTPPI
Chain of cSRC(h) (P12931 whole entry): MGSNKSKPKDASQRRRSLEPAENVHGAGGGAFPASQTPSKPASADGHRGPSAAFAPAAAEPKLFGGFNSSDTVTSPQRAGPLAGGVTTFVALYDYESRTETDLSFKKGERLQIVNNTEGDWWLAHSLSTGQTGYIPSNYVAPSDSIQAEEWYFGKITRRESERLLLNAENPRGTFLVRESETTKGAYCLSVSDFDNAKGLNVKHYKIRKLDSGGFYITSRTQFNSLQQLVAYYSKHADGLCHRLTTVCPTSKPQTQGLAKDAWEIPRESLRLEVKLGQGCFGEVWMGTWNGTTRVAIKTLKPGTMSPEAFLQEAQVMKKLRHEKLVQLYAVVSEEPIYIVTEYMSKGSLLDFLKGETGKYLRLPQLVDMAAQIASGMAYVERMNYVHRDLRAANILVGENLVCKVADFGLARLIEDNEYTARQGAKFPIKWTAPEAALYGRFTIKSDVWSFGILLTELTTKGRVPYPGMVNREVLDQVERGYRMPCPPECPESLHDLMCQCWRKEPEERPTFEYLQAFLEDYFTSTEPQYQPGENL
Chain of IR(h) (P06213 28-1382): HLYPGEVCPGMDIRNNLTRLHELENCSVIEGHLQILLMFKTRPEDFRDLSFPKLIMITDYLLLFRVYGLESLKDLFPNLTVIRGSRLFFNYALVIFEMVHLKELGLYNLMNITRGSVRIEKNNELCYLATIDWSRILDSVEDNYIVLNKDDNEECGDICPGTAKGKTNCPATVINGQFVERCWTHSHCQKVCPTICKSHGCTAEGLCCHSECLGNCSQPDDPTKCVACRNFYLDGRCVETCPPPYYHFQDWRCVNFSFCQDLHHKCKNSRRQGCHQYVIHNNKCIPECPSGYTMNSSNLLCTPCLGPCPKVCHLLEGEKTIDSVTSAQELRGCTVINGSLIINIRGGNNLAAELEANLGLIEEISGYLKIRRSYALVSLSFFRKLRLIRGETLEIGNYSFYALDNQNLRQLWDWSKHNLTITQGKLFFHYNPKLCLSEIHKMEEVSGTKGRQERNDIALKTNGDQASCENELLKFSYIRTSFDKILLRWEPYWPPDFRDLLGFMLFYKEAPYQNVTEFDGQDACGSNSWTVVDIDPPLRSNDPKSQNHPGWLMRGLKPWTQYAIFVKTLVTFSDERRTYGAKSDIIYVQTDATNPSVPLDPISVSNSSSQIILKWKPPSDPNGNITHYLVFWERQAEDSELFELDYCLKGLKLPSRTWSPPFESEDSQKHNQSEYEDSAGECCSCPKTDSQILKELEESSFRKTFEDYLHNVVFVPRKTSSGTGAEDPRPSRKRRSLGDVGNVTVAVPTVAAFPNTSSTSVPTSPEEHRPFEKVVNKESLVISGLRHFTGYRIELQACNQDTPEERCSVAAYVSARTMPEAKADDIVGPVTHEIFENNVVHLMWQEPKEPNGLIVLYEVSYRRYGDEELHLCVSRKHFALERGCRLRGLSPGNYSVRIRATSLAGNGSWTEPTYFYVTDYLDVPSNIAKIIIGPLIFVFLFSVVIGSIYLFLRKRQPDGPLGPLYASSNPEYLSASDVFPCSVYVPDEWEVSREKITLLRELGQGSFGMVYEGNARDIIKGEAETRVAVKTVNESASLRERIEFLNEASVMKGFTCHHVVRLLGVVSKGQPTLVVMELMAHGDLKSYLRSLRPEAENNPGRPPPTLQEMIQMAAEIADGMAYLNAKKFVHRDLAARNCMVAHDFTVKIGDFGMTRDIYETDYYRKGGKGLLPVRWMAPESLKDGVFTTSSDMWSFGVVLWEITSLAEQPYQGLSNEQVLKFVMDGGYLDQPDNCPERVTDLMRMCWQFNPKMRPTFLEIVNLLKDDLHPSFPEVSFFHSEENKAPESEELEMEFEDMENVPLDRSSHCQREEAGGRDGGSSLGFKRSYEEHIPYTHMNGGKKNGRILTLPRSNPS
Chain of SGK(h) (O00141 whole entry): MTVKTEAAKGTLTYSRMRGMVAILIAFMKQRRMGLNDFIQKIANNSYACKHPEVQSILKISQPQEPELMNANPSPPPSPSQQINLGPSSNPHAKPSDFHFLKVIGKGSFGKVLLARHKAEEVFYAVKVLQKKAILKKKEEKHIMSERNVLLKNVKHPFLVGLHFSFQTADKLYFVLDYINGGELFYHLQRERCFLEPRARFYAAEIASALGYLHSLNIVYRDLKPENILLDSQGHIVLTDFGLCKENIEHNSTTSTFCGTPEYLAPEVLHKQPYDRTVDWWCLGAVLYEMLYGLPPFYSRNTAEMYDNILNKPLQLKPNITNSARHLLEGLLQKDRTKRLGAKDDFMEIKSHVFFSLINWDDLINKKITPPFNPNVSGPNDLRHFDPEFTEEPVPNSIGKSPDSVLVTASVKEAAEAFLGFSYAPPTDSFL
Chain of Ret(h) (P07949 29-1114): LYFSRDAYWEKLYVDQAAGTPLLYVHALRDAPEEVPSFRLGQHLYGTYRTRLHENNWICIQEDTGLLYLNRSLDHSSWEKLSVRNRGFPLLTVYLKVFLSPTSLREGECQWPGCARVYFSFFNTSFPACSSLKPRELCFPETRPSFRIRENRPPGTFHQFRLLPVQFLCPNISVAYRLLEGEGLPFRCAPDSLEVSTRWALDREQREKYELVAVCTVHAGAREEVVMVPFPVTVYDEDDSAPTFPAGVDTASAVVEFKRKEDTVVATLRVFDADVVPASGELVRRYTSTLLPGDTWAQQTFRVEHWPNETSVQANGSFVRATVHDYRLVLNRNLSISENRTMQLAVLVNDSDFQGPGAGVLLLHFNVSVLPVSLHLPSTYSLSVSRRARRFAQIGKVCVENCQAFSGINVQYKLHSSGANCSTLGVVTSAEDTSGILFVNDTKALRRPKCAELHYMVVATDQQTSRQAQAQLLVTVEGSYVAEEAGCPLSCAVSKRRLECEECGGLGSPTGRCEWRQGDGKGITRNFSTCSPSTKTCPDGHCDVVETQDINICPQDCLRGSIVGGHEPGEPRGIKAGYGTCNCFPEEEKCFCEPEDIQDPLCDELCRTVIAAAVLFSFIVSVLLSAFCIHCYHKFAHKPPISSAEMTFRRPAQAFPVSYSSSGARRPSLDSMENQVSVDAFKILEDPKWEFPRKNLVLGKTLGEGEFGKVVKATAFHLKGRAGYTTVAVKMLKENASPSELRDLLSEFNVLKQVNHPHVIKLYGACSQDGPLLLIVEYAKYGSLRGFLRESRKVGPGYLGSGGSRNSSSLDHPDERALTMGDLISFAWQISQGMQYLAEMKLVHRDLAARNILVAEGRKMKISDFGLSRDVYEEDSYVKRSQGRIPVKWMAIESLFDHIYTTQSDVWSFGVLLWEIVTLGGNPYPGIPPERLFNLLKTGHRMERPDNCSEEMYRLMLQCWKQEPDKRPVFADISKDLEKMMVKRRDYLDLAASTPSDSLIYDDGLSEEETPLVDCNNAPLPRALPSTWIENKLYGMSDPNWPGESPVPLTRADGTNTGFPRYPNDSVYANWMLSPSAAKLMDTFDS
Chain of NEK7(h) (Q8TDX7 whole entry): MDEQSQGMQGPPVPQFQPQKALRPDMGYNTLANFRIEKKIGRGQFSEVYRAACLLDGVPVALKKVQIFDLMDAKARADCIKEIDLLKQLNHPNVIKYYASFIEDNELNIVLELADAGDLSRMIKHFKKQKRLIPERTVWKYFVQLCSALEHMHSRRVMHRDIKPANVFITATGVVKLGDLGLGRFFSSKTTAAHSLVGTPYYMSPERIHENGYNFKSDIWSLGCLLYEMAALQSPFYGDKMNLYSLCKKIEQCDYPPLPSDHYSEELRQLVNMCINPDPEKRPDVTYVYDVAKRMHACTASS

Structure (SMILES): COc1cc(O)c2c(c1)[C@H]1O[C@@H]1C[C@H](O)[C@H](O)C(=O)/C=C\C[C@H](C)OC2=O [Hypothemycin, hypothemycin]
- growth of the A375 xenograft relative to vehicle alone ([1]; administered daily at 15 mg/kg or 20 mg/kg, FIG. 6): significantly inhibits the growth
- A375 xenograft growth inhibition compared with Bayer 43-9006 ([1]; hypothemycin at both dosages vs Bayer 43-9006 25 mg/kg or 50 mg/kg every other day): significantly better
- remaining activity at 0.2 µM [2]: 104%
- remaining activity at 0.2 µM [3]: 100%
- remaining activity at 0.2 µM [4]: 104%
- remaining activity at 0.2 µM ([5]; 0.2 μM): 2%
- remaining activity at 2 µM ([5]; 2.0 μM): 7%
- remaining activity at 0.2 µM [6]: 98%
- remaining activity at 0.2 µM [7]: 102%
- remaining activity at 0.2 µM [8]: 99%
- remaining activity at 0.2 µM ([9]; 0.2 μM): 4%
- remaining activity at 2 µM ([9]; 2.0 μM): 2%
- remaining activity at 0.2 µM ([10]; 0.2 μM): 75%
- remaining activity at 2 µM ([10]; 2.0 μM): 49%
